This note sets out measurements from patent publication US11884686B2, “Chelate compounds” (priority 2016, dated 2024).

The term solubility denotes how much of the substance goes into solution per volume. A low value points to a poorly soluble substance.

Series [1] can be described thus: Water solubility of Mn(II) based chelates. The class given is physicochemical. The conditions noted are these: thermodynamic from solid, 25° C. As for the experimental part:
The solubility of Mn(II) based chelates was confirmed by dissolving purified Mn(II) based chelates ( 99% purity) in a prescribed volume of solvent (Millipore water 18.2 MegaOhm from a Millipore BioCell Benchtop unit) to provide a solution of given volume. Solutions were visually inspected for homogeneity and filtered through a 0.45 um PTFE filter membrane if necessary. The assessment was carried out at 25° C. Final sample concentrations were confirmed by determination of final Mn(II) concentration via ICP-MS (Spectro Arcos FHS[…] 10003910 or S/N 12006120).

The nature of series [2]: In vitro proton relaxivity in human serum. It counts as physicochemical. The conditions noted are these: 60 MHz, 40° C. As for the experimental part:
Both the longitudinal and transverse relaxation times were measured in human serum (BioreclamationIVT, Cat #HMSRM-M) to reflect the efficiency of the Mn(II) based chelates in an environment close to physiological. The relaxivity assessment was carried out at a concentration ranging from 5 to 0 mM Mn(II), at 40° C. using a Minispec Mq benchtop NMR relaxometer (Bruker Instruments, Rheinstetten, Germany) operating at 60 MHz (1.4 T) with an inversion recovery pulse sequence. The longitudinal and transverse relaxivities of the complexes (e.g., r1 and r2 respectively) were calculated by plotting the reciprocal of their relaxation time versus the manganese concentration as determined via ICP-MS (Spectro Arcos FHS12, S/N 10003910 or S/N 12006120) for each Mn(II) based chelates. The dependence of T1 by B0 (i.e., magnetic field) applied was assessed via the acquisition of ^1H Nuclear Magnetic Relaxation Dispersion (NMRD) profiles. A dedicated Stelar SMARTracer Fast Field Cycling relaxometer (0.01-10 MHz) and a Bruker WP80 NMR electromagnet adapted to variable field measurements (20-80 MHz) and controlled by a SMARTracer PC-NMR console was used to record the ^1H NMRD profiles over an extended range of Larmor Frequencies (from 0.01 to 80 MHz). The temperature was monitored by a VTC91 temperature control unit and maintained by a gas flow. The temperature was determined by previous calibration with a Pt resistance temperature probe. High field relaxivities were measured on a Bruker AVANCE NMR spectrometer at 400 MHz. A total of 25 data points per NMRD profile were recorded at each temperature, pH 6.9 and with a manganese concentration in the samples of 6.99, 6.78 and 4.45 mM for the prior art Mn Chelate, Mn Chelate 4 and Mn Chelate 3, respectively. The concentration of Mn(II) in all samples was verified by Bulk Magnetic Susceptibility (BMS) measurements. Relaxivity was computed by subtracting the relaxation rate of the medium (distilled water) from the relaxation rate of the Mn(II) complex solution at each field strength and dividing the difference by the manganese concentration verified by BMS measurements.
The linear fit (R2>0.99 for all compounds examined) of 1/T1 and 1/T2 as a function of Mn concentration generated the r1 or r2 values reported in Table 4 for human serum.

A value given as a limit tells only on which side of the number the result lay.

The compound `CN1CCN2Cc3cccc(n3)CN(CC1)C(CCC(=O)NC[C@H](O)[C@@H](O)[C@H](O)[C@H](O)CO)C(=O)[O][Mn][O]C(=O)C2CCC(=O)NC[C@H](O)[C@@H](O)[C@H](O)[C@H](O)CO` (stereo partly shown) [Mn Chelate 5] showed a solubility in series [1] above 500 mM. Moreover, in series [2], the “r1 (longitudinal relaxivity)” value was determined as 5.2 mM⁻¹ s⁻¹.

Take `CN1CCN2Cc3cccc(n3)CN(CC1)C(CC(=O)NC[C@H](O)[C@@H](O)[C@H](O)[C@H](O)CO)C(=O)[O][Mn][O]C(=O)C2CC(=O)NC[C@H](O)[C@@H](O)[C@H](O)[C@H](O)CO` (stereo partly shown) [Mn Chelate 5a]: in series [1], the solubility is above 500 mM. For the same compound, the “r1 (longitudinal relaxivity)” value in series [2] came to 3.7 mM⁻¹ s⁻¹.

In series [1], `CN1CCN2Cc3cccc(n3)CN(CC1)C(CCC(=O)Nc1cc(C(=O)NCC(O)CO)cc(C(=O)NCC(O)CO)c1)C(=O)[O][Mn][O]C(=O)C2CCC(=O)Nc1cc(C(=O)NCC(O)CO)cc(C(=O)NCC(O)CO)c1` (stereo not shown) [Mn Chelate 7] came in with a solubility above 500 mM. The “r1 (longitudinal relaxivity)” value in series [2] came to 6.0 mM⁻¹ s⁻¹.

`CN1CCN2Cc3cccc(n3)CN(CC1)C(CCC(=O)N(CCO)CCO)C(=O)[O][Mn][O]C(=O)C2CCC(=O)N(CCO)CCO` (stereo not shown) [Mn Chelate 9]: in series [1], the solubility is above 500 mM. Moreover, in series [2], the “r1 (longitudinal relaxivity)” value worked out at 4.3 mM⁻¹ s⁻¹.

In series [1], `CN1CCN2Cc3cccc(n3)CN(CC1)C(CCC(=O)NCC(O)CO)C(=O)[O][Mn][O]C(=O)C2CCC(=O)NCC(O)CO` (stereo not shown) [Mn Chelate 10] registered a solubility above 500 mM. In addition, in series [2], the “r1 (longitudinal relaxivity)” value is 4.3 mM⁻¹ s⁻¹.

Consider `CN1CCN2Cc3cccc(n3)CN(CC1)C(CC(=O)NCC(O)CO)C(=O)[O][Mn][O]C(=O)C2CC(=O)NCC(O)CO` (stereo not shown) [Mn Chelate 10a], for which the solubility in series [1] was above 500 mM. Moreover, the “r1 (longitudinal relaxivity)” value in series [2] was determined as 3.8 mM⁻¹ s⁻¹.

As for `CN1CCN2Cc3cccc(n3)CN(CC1)C(CCC(=O)NC(CO)(CO)CO)C(=O)[O][Mn][O]C(=O)C2CCC(=O)NC(CO)(CO)CO` (stereo not shown) [Mn Chelate 11], the “r1 (longitudinal relaxivity)” value in series [2] was determined as 4.6 mM⁻¹ s⁻¹.
